Where a name gives a salt, the structure may show the parent alone.
What was measured:
[1] = target: T1, LPAR1 (Homo sapiens (Human), UniProt Q92633); experiment: LPAR1 Calcium Flux Assay; type: cell-based; conditions: U937 cells overexpressing human LPAR1, LPA-stimulated calcium, FLIPR
Experimental: LPAR1 Calcium Flux Assays
(§1) A cDNA encoding the human LPAR1 receptor is synthesized and cloned into pDNA3 expression plasmid. The plasmid is transfected in U937 cells using Lipofectamine 2000 (Invitrogen Corp., USA). Clones stably expressing human LPAR1 are selected using puromycin and identified as cells that show Ca-influx in response to LPA.
U937 cells overexpressing human LPAR1 are seeded at 100,000 cells per well in a 96-well fibronectin (10 ug/ml) coated plate in 60 μl of assay buffer (HBSS containing 20 mM HEPES and 0.2% BSA) and then incubated for 60 minutes. Then 50 μl of a calcium indicator dye (Fluo-4 NW, Molecular Probes) are added to each well and incubation continued for 30 minutes at 37° C. and then 30 minutes at room temperature. 50 μl of test compounds in 4% DMSO are added to the cells and incubation continued at room temperature for 40 minutes. Cells are the stimulated by the addition of 50 μl of 128 nM LPA and intracellular calcium is measured using the FLIPR TETRA (Molecular Devices). IC50 values are determined using “Genedata Screener” analysis tool.
Target sequence in this assay (Q92633 whole entry): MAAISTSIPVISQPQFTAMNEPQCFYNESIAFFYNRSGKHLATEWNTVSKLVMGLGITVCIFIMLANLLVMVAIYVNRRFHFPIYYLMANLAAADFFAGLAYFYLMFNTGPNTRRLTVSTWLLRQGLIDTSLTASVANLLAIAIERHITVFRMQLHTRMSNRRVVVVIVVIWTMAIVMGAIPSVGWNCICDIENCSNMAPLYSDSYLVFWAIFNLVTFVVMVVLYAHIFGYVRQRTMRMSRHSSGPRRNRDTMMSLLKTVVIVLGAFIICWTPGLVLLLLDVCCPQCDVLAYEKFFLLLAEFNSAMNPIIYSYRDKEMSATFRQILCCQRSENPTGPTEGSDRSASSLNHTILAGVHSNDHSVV

[2] = target: human LPAR3 (Homo sapiens (Human), UniProt Q9UBY5); experiment: LPAR3 Calcium Flux Assay; type: cell-based; conditions: U2OS cells overexpressing human LPAR3, LPA-stimulated calcium, FLIPR
Sequence of human LPAR3 (Q9UBY5 whole entry): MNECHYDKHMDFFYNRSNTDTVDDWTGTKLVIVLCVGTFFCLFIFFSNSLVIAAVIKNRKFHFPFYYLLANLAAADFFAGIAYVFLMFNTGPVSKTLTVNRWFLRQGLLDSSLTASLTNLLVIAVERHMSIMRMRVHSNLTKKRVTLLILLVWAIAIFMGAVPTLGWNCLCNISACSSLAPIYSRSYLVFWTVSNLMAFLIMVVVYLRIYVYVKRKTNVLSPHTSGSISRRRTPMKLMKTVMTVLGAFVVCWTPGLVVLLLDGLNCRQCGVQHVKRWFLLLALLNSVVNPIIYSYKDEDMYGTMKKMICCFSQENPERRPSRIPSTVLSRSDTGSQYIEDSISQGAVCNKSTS
Experimental: LPAR3 Calcium Flux Assays
as §1, with “LPAR3” for “LPAR1”, “U2OS” for “U937”, “neomycin” for “puromycin”
U2OS cells overexpressing human LPAR3 are seeded at 20,000-40,000 cells per well in a 96-well poly-D-lysine coated plate one day before the assay. Prior to the assay, the cells are washed once with assay buffer (HBSS containing 20 mM HEPES and 0.2% BSA) and then incubated in 50 μl of assay buffer for 60 minutes. Then 50 μl of a calcium indicator dye (Fluo-4 NW, Molecular Probes) are added to each well and incubation is continued for 30 minutes at 37° C. and then 30 minutes at room temperature. 50 μl of test compounds in 4% DMSO are added to the cells and incubation continued at room temperature for 40 minutes. Cells are stimulated by the addition of 50 μl of 128 nM LPA and intracellular calcium is measured using the FLIPR TETRA (Molecular Devices). IC50 values are determined using “Genedata Screener” analysis tool.

[3] = tested on: Human hepatic stellate cell line LX-2; experiment: Calcium Influx of Human Hepatic Stellate Cells (LX-2); type: cell-based; conditions: LX-2 cells, LPA-stimulated calcium influx
Experimental: Calcium Influx of Human Hepatic Stellate Cells (LX-2)
Human hepatic stellate cell line LX-2 is purchased from EMD Millpore. LX-2 cells are seeded at 20,000-40,000 cells per well in a 96-well poly-D-lysine coated plate one day before the assay. Prior to the assay, the cells are washed once with assay buffer (HBSS containing 20 mM HEPES and 0.2% BSA) and then incubated in 50 μl of assay buffer for 60 minutes. Then 50 μl of a calcium indicator dye (Fluo-4 NW, Molecular Probes) are added to each well and incubation is continued for 30 minutes at 37° C. and then 30 minutes at room temperature. 50 μl of test compounds in 4% DMSO are added to the cells and incubation is continued at room temperature for 40 minutes. Cells are stimulated by the addition of 50 μl of 128 nM LPA and intracellular calcium is measured using the FLIPR TETRA (Molecular Devices). IC50 values are determined using “Genedata Screener” analysis tool.

[4] = target: T1, LPAR1; experiment: LPAR1 Cytokine Release Assay (IL-6, MG63 cells); type: cell-based; conditions: LPA-stimulated IL-6 levels, 24 hours, ELISA
Experimental: LPAR1 Cytokine Release Assay
Human MG63 cells are seeded at 20,000 per well in 96-well plates and incubated in MEM medium. One day later, the cell culture medium is removed and 60 μl of test compounds are added to each well. 30 minutes later, 60 μl of LPA (10 μM) are added to each well. 24 hours later, 50 μl of supernatant from each well are taken and IL-6 levels are measure by using ELISA kit (R&D Systems, Cat. No. D6050). IC50 values are determined using “Genedata Screener” analysis tool.
Target sequence in this assay (Q92633 whole entry): as the sequence (Q92633 whole entry) above

[5] = target: T1, LPAR1; experiment: LPAR1 Membrane Binding Assay; conditions: membrane containing LPAR1, radio labeled ligand, SPA
Experimental: LPAR1 Membrane Binding Assay
The ability of a compound to inhibit binding of a ligand (1-(4′-(4-(((benzyloxy)carbonyl)amino)-3-methylisoxazol-5-yl)-[1,1′-biphenyl]-4-yl)cyclopropane-1-carboxylic acid) to LPAR1 is assessed via a membrane binding assay. Membrane containing LPAR1 was purchased from Cerep (Cat. No. 290312RB). Prior to the assay, membrane is thawed and homogenized for 15 seconds. 50 μl of test compounds and 50 μl of radio labeled ligand are added to the 96-well plates and then 50 of μl membrane (50-400 ug/ml) are added. Next, 50 μl of SPA PVT WGA beads are added (1-5 mg/ml) and the plates are sealed and incubated at room temperate for 5 minutes. Radio activity is measured by Beta Counter and IC50 values are determined using “Genedata Screener” analysis tool.
Target sequence in this assay (Q92633 whole entry, species assumed): as the sequence (Q92633 whole entry) above

[6] = Rodent Pharmacokinetics - Mouse PK; type: in vivo, C57 mice; conditions: C57, plasma; for AUC / bioavailability: 10 mg/kg; for AUC: PO; for clearance / Vd: intravenous; for Vd: read-out: Vdss; for bioavailability: oral
Experimental: (§2) The pharmacokinetics of compounds are determined in male Sprague-Dawley rats or C57 mice. The rats are administered a single 1 mg/kg intravenous (IV) and 10 mg/kg oral gavage (PO) dose. The vehicles are 20% Captisol w/v in 25 mM NaPO4 buffer, pH8 and 1% hydroxyethylcellulose/0.25% polysorbate 80 and 0.05% antifoam 1510-US in distilled water for the intravenous and oral dose, respectively. Blood samples are collected at predose (PO only), 0.08 (IV only), 0.25, 0.5, 1, 2, 4, 8, 12 and 24 h after initiation of compound administration. Blood samples are centrifuged to obtain plasma. The plasma samples are analyzed by LC-MS/MS to determine compound concentrations.

[7] = Rodent Pharmacokinetics - Rat PK; type: in vivo, male Sprague-Dawley rats; conditions: male, Sprague-Dawley, plasma
Experimental: as §2

[8] = tested on: Male C57BL/6J mice; experiment: Mouse Intravenous LPA-Induced Histamine and Eicosanoids Release; type: in vivo; conditions: 10 mg/kg orally 2 hours before intravenous LPA; plasma
Experimental: Mouse Intravenous LPA-Induced Histamine and Eicosanoids Release
A mouse intravenous LPA-induced histamine and eicosanoids release model is utilized to determine the in vivo potency of the compounds of the present invention. Male C57BL/6J mice weighing 20-25 grams are given free access to standard mouse chow and water. LPA is dissolved in 0.1% fatty acid-free bovine serum albumin to generate solution at 2 mg/mL. Test compounds are formulated in 0.5% methyl cellulose plus 0.25% Tween 80 to generate required concentrations one day before the experiment and stored in a refrigerator until use. Animals are dosed orally with test compounds at 10 ml/kg 2 hours before the intravenous LPA dosing (300 ug per mouse) with 30 gauge needles through tail vain. Two hours after LPA dosing the animals are euthanized by CO2 suffocate. Blood will be collected by cardiac puncture. Blood samples are kept on ice for more than 5 minutes and centrifuged at 4000 rpm for 10 minutes at 4° C. to generate supernatant plasma. The plasma histamine, methylimidazol acetic acid and eicosanoids levels are measured by LC/MS.

| SMILES | IC50 [1] | IC50 [2] | IC50 [3] | IC50 [4] | Ki [5] | AUC [6] | clearance [6] | Vd [6] | bioavailability [6] | AUC ([7]; 10 mg/kg, PO) | clearance ([7]; intravenous, 1 mg/kg) | Vd ([7]; intravenous, 1 mg/kg, read-out: Vdss) | bioavailability ([7]; oral, 10 mg/kg) | % of inhibition, 9,10-cis epoxide of linoleic acid [8] | % of inhibition, 12-hydroxyeicosatetraenoic acid [8] | % of inhibition, methylimidazoleacetic acid [8] |
| --- | --- | --- | --- | --- | --- | --- | --- | --- | --- | --- | --- | --- | --- | --- | --- | --- |
| CC(C)Cc1cncc(Nc2c(-c3ccc(-c4ccc(C5(C(=O)O)CC5)cc4)cc3)cnn2C)n1 [Example 17, 1-[4-[4-[5-[(6-isobutylpyrazin-2-yl)amino]-1-methyl-pyrazol-4-yl]phenyl]phenyl]cyclopropanecarboxylic Acid] | 54.7 nM | 1830 nM | 23.1 nM | 5.81 nM | – | – | – | – | – | – | – | – | – | – | – | – |
| CC(C)c1cncc(Nc2c(-c3ccc(-c4ccc(C5(C(=O)O)CC5)cc4)cc3)cnn2C)n1 [Example 26, 1-[4-[4-[5-[(6-isopropylpyrazin-2-yl)amino]-1-methyl-pyrazol-4-yl]phenyl]phenyl]cyclopropanecarboxylic Acid] | 23.6 nM | > 10000 nM | 13.1 nM | 4.79 nM | 18.8 nM | 9.06 µM·h | 2 mL/min/kg | 2 L/kg | 30% | – | – | – | – | – | – | – |
| Cn1ncc(-c2ccc(-c3ccc(C4(C(=O)O)CC4)cc3)cn2)c1Nc1cncc(C(F)(F)F)n1 [Example 21, 1-[4-[6-[1-methyl-5-[[6-(trifluoromethyl)pyrazin-2-yl]amino]pyrazol-4-yl]-3-pyridyl]phenyl]cyclopropanecarboxylic Acid] | 36.3 nM | 1610 nM | 14.1 nM | 8.81 nM | 27.6 nM | 16.3 µM·h | 4.99 mL/min/kg | 1.46 L/kg | 24.8% | – | – | – | – | – | – | – |
| Cn1ncc(-c2ncc(-c3ccc(C4(C(=O)O)CC4)cc3)cc2F)c1Nc1cncc(C(C)(C)F)n1 [Example 4, 1-[4-[5-fluoro-6-[5-[[6-(1-fluoro-1-methyl-ethyl)pyrazin-2-yl]amino]-1-methyl-pyrazol-4-yl]-3-pyridyl]phenyl]cyclopropanecarboxylic Acid Hydrochloride] | 16.7 nM | 1590 nM | 8.67 nM | – | 80.5 nM | – | – | – | – | – | – | – | – | – | – | – |
| CC(C)Oc1cncc(Nc2c(-c3ccc(-c4ccc(C5(C(=O)O)CC5)cc4)cn3)cnn2C)n1.Cl [Example 20, 1-[4-[6-[5-[(6-isopropoxypyrazin-2-yl)amino]-1-methyl-pyrazol-4-yl]-3-pyridyl]phenyl]cyclopropanecarboxylic Acid; Hydrochloride] | 29.3 nM | 341 nM | 12 nM | 3.95 nM | 12.7 nM | – | – | – | – | 70.9 µM·h | 2.94 mL/min/kg | 0.721 L/kg | 57.5% | 83.4 ± 6.4% | 68.8 ± 6.0% | 103.5 ± 0.6% |
| Cn1ncc(-c2ccc(-c3ccc(C4(C(=O)O)CC4)cc3)cc2)c1Nc1cncc(C2CC2)n1 [Example 25, Ammonium 1-[4-[4-[5-[(6-cyclopropylpyrazin-2-yl)amino]-1-methyl-pyrazol-4-yl]phenyl]phenyl]cyclopropanecarboxylate] | 52.9 nM | > 10000 nM | 24.2 nM | – | 30.8 nM | – | – | – | – | – | – | – | – | – | – | – |

Further lines, with some results ahead:

| IC50 [1] | IC50 [2] | IC50 [3] | IC50 [4] | Ki [5] | AUC [6] | clearance [6] | Vd [6] | bioavailability [6] | AUC ([7]; 10 mg/kg, PO) | clearance ([7]; intravenous, 1 mg/kg) | Vd ([7]; intravenous, 1 mg/kg, read-out: Vdss) | bioavailability ([7]; oral, 10 mg/kg) | SMILES | % of inhibition, 9,10-cis epoxide of linoleic acid [8] | % of inhibition, 12-hydroxyeicosatetraenoic acid [8] | % of inhibition, methylimidazoleacetic acid [8] |
| --- | --- | --- | --- | --- | --- | --- | --- | --- | --- | --- | --- | --- | --- | --- | --- | --- |
| 30.9 nM | 1170 nM | 10.4 nM | 11.2 nM | – | – | – | – | – | – | – | – | – | Cc1cc(C2(C(=O)O)CC2)ccc1-c1ccc(-c2cnn(C)c2Nc2cncc(C(C)C)n2)nc1 [Example 22, 1-[4-[6-[5-[(6-isopropylpyrazin-2-yl)amino]-1-methyl-pyrazol-4-yl]-3-pyridyl]-3-methyl-phenyl]cyclopropanecarboxylic Acid; Hydrochloride] | – | – | – |
| 111 nM | > 10000 nM | 21.5 nM | 183 nM | – | – | – | – | – | – | – | – | – | CC(C)c1cncc(Nc2c(-c3ccc(-c4ccc(C5(C(=O)O)CC5)nc4)cn3)cnn2C)n1 [Example 23, Ammonia; 1-[5-[6-[5-[(6-isopropylpyrazin-2-yl)amino]-1-methyl-pyrazol-4-yl]-3-pyridyl]-2-pyridyl]cyclopropanecarboxylic Acid] | – | – | – |
| 24 nM | 2360 nM | 7.94 nM | 6.67 nM | 24.5 nM | – | – | – | – | – | – | – | – | CC(C)c1cncc(Nc2c(-c3ncc(-c4ccc(C5(C(=O)O)CC5)cc4)cn3)cnn2C)n1 [Example 18, 1-[4-[2-[5-[(6-isopropylpyrazin-2-yl)amino]-1-methyl-pyrazol-4-yl]pyrimidin-5-yl]phenyl]cyclopropanecarboxylic acid] | – | – | – |

— patent publication US11365185B2, “Lysophosphatidic acid receptor 1 (LPAR1) inhibitor compounds” (Eli Lilly and Company, priority 2017, dated 2022)
